{"source": "paper PMC6704710", "about": "“Preclinical evaluation of 3D185, a novel potent inhibitor of FGFR1/2/3 and CSF-1R, in FGFR-dependent and macrophage-dominant cancer models” (Journal of Experimental & Clinical Cancer Research : CR, 2019)", "assay_in_all_cases": "Eurofins kinase panel", "format_in_all_cases": "biochemical", "conditions_in_all_cases": "read-out: Inhibition rate (%)", "key": {"SRPK1(h)": {"target": "T1, SRPK1(h) (Homo sapiens, UniProt Q96SB4)", "T1 construct": "purchased Eurofins (KinaseProfiler)", "T1 sequence (Q96SB4 whole entry)": "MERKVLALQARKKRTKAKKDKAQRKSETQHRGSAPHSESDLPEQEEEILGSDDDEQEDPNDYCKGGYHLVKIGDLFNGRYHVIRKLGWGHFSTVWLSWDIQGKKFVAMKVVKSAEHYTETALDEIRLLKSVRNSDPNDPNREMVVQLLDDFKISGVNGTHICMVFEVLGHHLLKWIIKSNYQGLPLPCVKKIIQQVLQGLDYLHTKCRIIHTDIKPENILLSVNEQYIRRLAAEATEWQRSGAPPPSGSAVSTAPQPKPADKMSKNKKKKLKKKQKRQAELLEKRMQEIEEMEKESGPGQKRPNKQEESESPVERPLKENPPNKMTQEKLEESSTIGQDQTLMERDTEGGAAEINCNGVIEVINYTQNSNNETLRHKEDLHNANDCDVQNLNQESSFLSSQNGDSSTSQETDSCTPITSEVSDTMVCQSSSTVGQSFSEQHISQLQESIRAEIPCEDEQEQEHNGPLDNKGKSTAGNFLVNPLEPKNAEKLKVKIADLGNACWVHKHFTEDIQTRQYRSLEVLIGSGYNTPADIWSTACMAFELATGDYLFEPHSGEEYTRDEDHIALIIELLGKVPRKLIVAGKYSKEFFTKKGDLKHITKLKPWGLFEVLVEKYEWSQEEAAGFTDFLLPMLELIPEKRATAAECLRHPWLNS", "experimental": "(§1) Active FGFR1–4, VEGFR1, KDR, VEGFR3, PDGFRα and PDGFRβ proteins were purchased from Eurofins (Fremont, United States), and kinase activity was assessed using ELISA, as previously reported. […]. Increasing concentrations of ATP were diluted for the kinase reaction in the ATP competition assay. CSF-1R kinase activity was analyzed using the Z’-LYTE™ Kinase Assay Kit (Thermo Fisher, United States). The assay formats are described in the SelectScreen Kinase Profiling Service Zlyte protocol. IC50 values were calculated by dose-response curve fitting using Prism (Graph Pad)."}, "EphB4(h)": {"target": "T2, EphB4(h) (Homo sapiens, UniProt P54760)", "T2 construct": "purchased Eurofins (KinaseProfiler)", "T2 sequence (P54760 16-987)": "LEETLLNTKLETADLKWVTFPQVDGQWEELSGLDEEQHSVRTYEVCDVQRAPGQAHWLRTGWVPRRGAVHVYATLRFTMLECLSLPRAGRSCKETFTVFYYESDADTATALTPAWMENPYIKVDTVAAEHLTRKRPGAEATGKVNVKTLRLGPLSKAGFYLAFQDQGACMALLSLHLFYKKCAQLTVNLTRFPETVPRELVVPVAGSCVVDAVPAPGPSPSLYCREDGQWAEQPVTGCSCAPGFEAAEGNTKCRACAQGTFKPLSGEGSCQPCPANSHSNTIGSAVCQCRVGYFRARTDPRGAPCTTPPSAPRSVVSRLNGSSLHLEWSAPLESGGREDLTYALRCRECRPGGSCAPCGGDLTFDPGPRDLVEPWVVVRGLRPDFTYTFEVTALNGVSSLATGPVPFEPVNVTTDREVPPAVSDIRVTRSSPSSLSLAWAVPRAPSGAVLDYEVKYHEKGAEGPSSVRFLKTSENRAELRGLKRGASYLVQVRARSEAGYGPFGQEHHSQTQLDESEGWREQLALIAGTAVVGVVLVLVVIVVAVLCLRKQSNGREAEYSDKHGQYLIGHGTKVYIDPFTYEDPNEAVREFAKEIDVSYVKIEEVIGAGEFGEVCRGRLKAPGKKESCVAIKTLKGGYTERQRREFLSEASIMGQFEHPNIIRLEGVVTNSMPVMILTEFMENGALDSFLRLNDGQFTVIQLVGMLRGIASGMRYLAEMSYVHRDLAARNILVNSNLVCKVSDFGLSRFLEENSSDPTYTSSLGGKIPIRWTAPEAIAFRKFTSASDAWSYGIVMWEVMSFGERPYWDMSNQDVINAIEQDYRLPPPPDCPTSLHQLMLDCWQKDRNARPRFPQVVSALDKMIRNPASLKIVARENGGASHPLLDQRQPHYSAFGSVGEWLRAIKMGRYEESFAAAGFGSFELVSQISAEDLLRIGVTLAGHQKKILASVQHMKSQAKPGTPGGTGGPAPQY", "experimental": "as §1"}, "DCAMKL2(h)": {"target": "T3, DCAMKL2(h) (Homo sapiens, UniProt Q8N568)", "T3 construct": "purchased Eurofins (KinaseProfiler)", "T3 sequence (Q8N568 1-766)": "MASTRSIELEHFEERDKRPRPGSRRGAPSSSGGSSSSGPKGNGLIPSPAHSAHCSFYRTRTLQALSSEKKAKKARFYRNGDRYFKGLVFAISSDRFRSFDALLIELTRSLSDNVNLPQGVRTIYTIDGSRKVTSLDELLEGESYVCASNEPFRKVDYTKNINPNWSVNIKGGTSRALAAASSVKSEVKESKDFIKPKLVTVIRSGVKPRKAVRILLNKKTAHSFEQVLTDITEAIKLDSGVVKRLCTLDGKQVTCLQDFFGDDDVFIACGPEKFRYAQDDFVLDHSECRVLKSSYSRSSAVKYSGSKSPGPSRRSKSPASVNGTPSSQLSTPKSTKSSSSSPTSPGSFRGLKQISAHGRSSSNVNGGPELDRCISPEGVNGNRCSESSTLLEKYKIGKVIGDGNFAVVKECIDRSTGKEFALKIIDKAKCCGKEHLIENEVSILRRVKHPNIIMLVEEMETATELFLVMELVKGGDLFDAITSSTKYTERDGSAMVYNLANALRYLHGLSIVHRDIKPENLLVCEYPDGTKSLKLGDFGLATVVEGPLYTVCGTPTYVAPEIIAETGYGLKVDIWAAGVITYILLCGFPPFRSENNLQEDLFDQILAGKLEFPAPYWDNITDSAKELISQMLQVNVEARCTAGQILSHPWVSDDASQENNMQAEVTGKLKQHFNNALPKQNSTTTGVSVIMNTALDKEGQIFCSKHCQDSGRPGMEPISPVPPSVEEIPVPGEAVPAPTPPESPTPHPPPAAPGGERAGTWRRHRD", "experimental": "as §1"}, "JNK2α2(h)": {"target": "T4, JNK2α2(h) (Homo sapiens, UniProt P45984)", "T4 construct": "purchased Eurofins (KinaseProfiler)", "T4 sequence (P45984 whole entry)": "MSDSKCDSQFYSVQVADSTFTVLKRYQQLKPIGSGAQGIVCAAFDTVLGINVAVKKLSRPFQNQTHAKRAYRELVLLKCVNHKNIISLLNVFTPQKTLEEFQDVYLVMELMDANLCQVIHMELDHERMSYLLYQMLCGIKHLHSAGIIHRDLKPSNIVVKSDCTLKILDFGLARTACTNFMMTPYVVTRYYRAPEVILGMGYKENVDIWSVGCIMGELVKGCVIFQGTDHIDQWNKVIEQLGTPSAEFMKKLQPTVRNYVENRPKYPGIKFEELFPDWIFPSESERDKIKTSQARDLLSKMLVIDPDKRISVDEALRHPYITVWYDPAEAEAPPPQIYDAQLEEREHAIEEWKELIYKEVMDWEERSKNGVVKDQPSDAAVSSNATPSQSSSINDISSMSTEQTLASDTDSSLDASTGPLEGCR", "experimental": "as §1"}, "TAK1(h)": {"target": "T5, TAK1(h) (Homo sapiens, UniProt O43318)", "T5 construct": "purchased Eurofins (KinaseProfiler)", "T5 sequence (O43318 1-303 limits assumed)": "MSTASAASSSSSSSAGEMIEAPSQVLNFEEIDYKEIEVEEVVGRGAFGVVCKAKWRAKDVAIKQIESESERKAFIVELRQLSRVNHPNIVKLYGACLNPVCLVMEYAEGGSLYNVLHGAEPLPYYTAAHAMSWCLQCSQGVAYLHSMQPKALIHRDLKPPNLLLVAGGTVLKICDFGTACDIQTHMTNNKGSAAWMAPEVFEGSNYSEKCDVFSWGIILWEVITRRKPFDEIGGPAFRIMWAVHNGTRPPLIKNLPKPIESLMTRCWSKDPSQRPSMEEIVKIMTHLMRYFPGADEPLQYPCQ", "experimental": "as §1"}}, "data": [{"smiles": "COc1cc(OC)c(Cl)c(-c2ccc3c(NC(=O)c4ccc(N5CCNC(C)(C)C5)cc4)n[nH]c3n2)c1Cl", "note": "[3D185]", "values": [{"measurement": "inhibition at 0.01 µM", "setting": "SRPK1(h); 10 nM", "value": 13, "unit": "%"}, {"measurement": "inhibition at 0.1 µM", "setting": "SRPK1(h); 100 nM", "value": 9, "unit": "%"}, {"measurement": "inhibition at 1 µM", "setting": "SRPK1(h); 1000 nM", "value": 12, "unit": "%"}, {"measurement": "inhibition at 0.01 µM", "setting": "EphB4(h); 10 nM", "value": 8, "unit": "%"}, {"measurement": "inhibition at 0.1 µM", "setting": "EphB4(h); 100 nM", "value": -5, "unit": "%"}, {"measurement": "inhibition at 1 µM", "setting": "EphB4(h); 1000 nM", "value": 2, "unit": "%"}, {"measurement": "inhibition at 0.01 µM", "setting": "DCAMKL2(h); 10 nM", "value": 8, "unit": "%"}, {"measurement": "inhibition at 0.1 µM", "setting": "DCAMKL2(h); 100 nM", "value": 18, "unit": "%"}, {"measurement": "inhibition at 1 µM", "setting": "DCAMKL2(h); 1000 nM", "value": 28, "unit": "%"}, {"measurement": "inhibition at 0.01 µM", "setting": "JNK2α2(h); 10 nM", "value": 3, "unit": "%"}, {"measurement": "inhibition at 0.1 µM", "setting": "JNK2α2(h); 100 nM", "value": 4, "unit": "%"}, {"measurement": "inhibition at 1 µM", "setting": "JNK2α2(h); 1000 nM", "value": 1, "unit": "%"}, {"measurement": "inhibition at 0.01 µM", "setting": "TAK1(h); 10 nM", "value": -6, "unit": "%"}, {"measurement": "inhibition at 0.1 µM", "setting": "TAK1(h); 100 nM", "value": 11, "unit": "%"}, {"measurement": "inhibition at 1 µM", "setting": "TAK1(h); 1000 nM", "value": 13, "unit": "%"}]}]}
